Reference: patent publication US20240398805A1, “QUINAZOLINE DERIVED COMPOUNDS AS EGFR INHIBITORS AND THEIR USES THEREOF” (ACCUTAR BIOTECHNOLOGY INC., priority 2021, published 2024)

Tests used:
Format in all cases: cell-based
HCC827 cells = assay: Cell growth inhibition (CellTiter-Glo, 3 days) in HCC827; details: Homo sapiens, 72 h, 3 days after administration
Procedure, shortened: (§1)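 HCC827 cells in RPMI/10% FBS and A431 cells in DMEM/10% FBS were seeded at 5000 cells/well and left overnight. Compound was then added over a concentration range for 3 days of incubation, and viability was read by CellTiter-Glo luminescence.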

[1] = tested on: HCC827-SVD cells (human EGFR exon 20 insertion mutant D770_N771 insSVD); assay: Cell growth inhibition (CellTiter-Glo, 3 days) in HCC827-SVD; details: 72 h, 3 days after administration
Procedure, shortened: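 HCC827 cells carrying lentiviral codon-optimized EGFR D770_N771 insSVD, with endogenous EGFR knocked out by CRISPR (single clone), seeded at 5000 cells/well in RPMI with 10% FBS. Viability read by CellTiter-Glo luminescence.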

[2] = tested on: HCC827-ASV cells (human EGFR exon 20 insertion mutant A769_D770insASV); assay: Cell growth inhibition (CellTiter-Glo, 3 days) in HCC827-ASV; details: 72 h, 3 days after administration
Procedure, shortened: (§2)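 HCC827 cells lentivirally transduced with codon-optimized ASV or YVMA insertion mutants were seeded at 5000 cells/well in RPMI with 10% FBS and incubated overnight. Compound was added at various concentrations from a 10× stock in medium, with 3 days' incubation. Viability read by CellTiter-Glo luminescence.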

[3] = tested on: HCC827-YVMA cells (human ERBB2 exon20 insertion mutant A775_G776ins YVMA); assay: Cell growth inhibition (CellTiter-Glo, 3 days) in HCC827-YVMA; details: 72 h, 3 days after administration
Procedure, shortened: as §2

A431 cells = assay: Cell growth inhibition (CellTiter-Glo, 3 days) in A431; details: Homo sapiens, A-431, 72 h, 3 days after administration
Procedure, shortened: as §1

GI50 (HCC827 cells) [µM]	GI50 [1] [µM]	GI50 [2] [µM]	GI50 [3] [µM]	GI50 (A431 cells) [µM]	Structure (SMILES)
0.1 to 0.3	< 0.03	< 0.03	< 0.03	≥ 1	C=CC(=O)N1CCC(Nc2cc3c(Nc4ccc(Oc5ccnc(-c6ccccn6)c5)cc4F)ncnc3cc2OC)CC1 [Example 236, 1-(4-((4-((4-([2,2′-bipyridin]-4-yloxy)-2-fluorophenyl)amino)-7-methoxyquinazolin-6-yl)amino)piperidin-1-yl)prop-2-en-1-one]
0.3 to 0.6	0.03 to 0.06	0.06 to 0.1	< 0.03	≥ 1	C=CC(=O)N1CCC(Nc2cc3c(Nc4ccc(Oc5ccnc(-c6cccnc6)c5)cc4F)ncnc3cc2OC)CC1 [Example 237, 1-(4-((4-((4-([2,3′-bipyridin]-4-yloxy)-2-fluorophenyl)amino)-7-methoxyquinazolin-6-yl)amino)piperidin-1-yl)prop-2-en-1-one]
0.1 to 0.3	< 0.03	< 0.03	< 0.03	≥ 1	C=CC(=O)N1CCC(Nc2cc3c(Nc4ccc(Oc5ccnc(-c6ccncc6)c5)cc4F)ncnc3cc2OC)CC1 [Example 238, 1-(4-((4-((4-([2,4′-bipyridin]-4-yloxy)-2-fluorophenyl)amino)-7-methoxyquinazolin-6-yl)amino)piperidin-1-yl)prop-2-en-1-one]
< 0.03	< 0.03	0.06 to 0.1	0.06 to 0.1	0.3 to 0.6	C=CC(=O)N1CCC(Nc2cc3c(Nc4ccc(Oc5ccnc(N6CC7CCCC7C6)c5)cc4F)ncnc3cc2OC)CC1 (centres unmarked) [Example 239, 1-(4-((4-((2-fluoro-4-((2-(hexahydrocyclopenta [c]pyrrol-2(1H)-yl)pyridin-4-yl)oxy)phenyl)amino)-7-methoxyquinazolin-6-yl)amino)piperidin-1-yl)prop-2-en-1-one]
0.6 to 1	0.3 to 0.6	0.3 to 0.6	0.3 to 0.6	≥ 1	C=CC(=O)N1CCC(Nc2cc3c(Nc4ccc(Oc5ccnc(N6CC7CN(C)CC7C6)c5)cc4F)ncnc3cc2OC)CC1 (centres unmarked) [Example 240, 1-(4-((4-((2-fluoro-4-((2-(5-methylhexahydropyrrolo[3,4-c]pyrrol-2(1H)-yl)pyridin-4-yl)oxy)phenyl)amino)-7-methoxyquinazolin-6-yl)amino)piperidin-1-yl)prop-2-en-1-one]
< 0.03	0.03 to 0.06	0.06 to 0.1	0.06 to 0.1	0.6 to 1	C=CC(=O)N1CCC(Nc2cc3c(Nc4ccc(Oc5ccnc(N6C[C@H]7CCCC[C@H]7C6)c5)cc4F)ncnc3cc2OC)CC1 [Example 241, 1-(4-((4-((2-fluoro-4-((2-((3aR,7aS)-octahydro-2H-isoindol-2-yl)pyridin-4-yl)oxy)phenyl)amino)-7-methoxyquinazolin-6-yl)amino)piperidin-1-yl)prop-2-en-1-one]
≥ 1	0.1 to 0.3	0.1 to 0.3	0.1 to 0.3	≥ 1	C=CC(=O)N1CCC(Nc2cc3c(Nc4ccc(Oc5ccnc(N6CCCN(C)CC6)c5)cc4F)ncnc3cc2OC)CC1 [Example 242, 1-(4-((4-((2-fluoro-4-((2-(4-methyl-1,4-diazepan-1-yl)pyridin-4-yl)oxy)phenyl)amino)-7-methoxyquinazolin-6-yl)amino)piperidin-1-yl)prop-2-en-1-one]
< 0.03	< 0.03	< 0.03	< 0.03	0.06 to 0.1	C=CC(=O)N1CCC(Nc2cc3c(Nc4ccc(Oc5ccnc(NC6CC6)c5)cc4F)ncnc3cc2OC)CC1 [Example 244, 1-(4-((4-((4-((2-(cyclopropylamino)pyridin-4-yl)oxy)-2-fluorophenyl)amino)-7-methoxyquinazolin-6-yl)amino)piperidin-1-yl)prop-2-en-1-one]
0.1 to 0.3	0.03 to 0.06	< 0.03	< 0.03	0.3 to 0.6	C=CC(=O)N1CCC(Nc2cc3c(Nc4ccc(Oc5ccnc(NC(C)(C)C)c5)cc4F)ncnc3cc2OC)CC1 [Example 245, 1-(4-((4-((4-((2-(tert-butylamino)pyridin-4-yl)oxy)-2-fluorophenyl)amino)-7-methoxyquinazolin-6-yl)amino)piperidin-1-yl)prop-2-en-1-one]
0.03 to 0.06	< 0.03	< 0.03	< 0.03	0.1 to 0.3	C=CC(=O)N1CCC(Nc2cc3c(Nc4ccc(Oc5ccnc(NC6CCCC6)c5)cc4F)ncnc3cc2OC)CC1 [Example 246, 1-(4-((4-((4-((2-(cyclopentylamino)pyridin-4-yl)oxy)-2-fluorophenyl)amino)-7-methoxyquinazolin-6-yl)amino)piperidin-1-yl)prop-2-en-1-one]
0.1 to 0.3	0.06 to 0.1	0.06 to 0.1	0.03 to 0.06	0.6 to 1	C=CC(=O)N1CCC(Nc2cc3c(Nc4ccc(Oc5ccnc(N[C@H]6CCOC6)c5)cc4F)ncnc3cc2OC)CC1 [Example 247, (S)-1-(4-((4-((2-fluoro-4-((2-((tetrahydrofuran-3-yl)amino)pyridin-4-yl)oxy)phenyl)amino)-7-methoxyquinazolin-6-yl)amino)piperidin-1-yl)prop-2-en-1-one]
0.06 to 0.1	0.03 to 0.06	0.03 to 0.06	0.03 to 0.06	0.3 to 0.6	C=CC(=O)N1CCC(Nc2cc3c(Nc4ccc(Oc5ccnc(N[C@@H]6CCOC6)c5)cc4F)ncnc3cc2OC)CC1 [Example 248, (R)-1-(4-((4-((2-fluoro-4-((2-((tetrahydrofuran-3-yl)amino)pyridin-4-yl)oxy)phenyl)amino)-7-methoxyquinazolin-6-yl)amino)piperidin-1-yl)prop-2-en-1-one]
0.1 to 0.3	0.03 to 0.06	0.06 to 0.1	0.06 to 0.1	0.6 to 1	C=CC(=O)N1CCC(Nc2cc3c(Nc4ccc(Oc5ccnc(N6CCC[C@H]6C)c5)cc4F)ncnc3cc2OC)CC1 [Example 249, (R)-1-(4-((4-((2-fluoro-4-((2-(2-methylpyrrolidin-1-yl)pyridin-4-yl)oxy)phenyl)amino)-7-methoxyquinazolin-6-yl)amino)piperidin-1-yl)prop-2-en-1-one]
0.1 to 0.3	< 0.03	< 0.03	< 0.03	≥ 1	C=CC(=O)N1CCC(Nc2cc3c(Nc4ccc(Oc5ccnc(N6CC[C@H](CO)C6)c5)cc4F)ncnc3cc2OC)CC1 [Example 250, (S)-1-(4-((4-((2-fluoro-4-((2-(3-(hydroxymethyl)pyrrolidin-1-yl)pyridin-4-yl)oxy)phenyl)amino)-7-methoxyquinazolin-6-yl)amino)piperidin-1-yl)prop-2-en-1-one]
0.1 to 0.3	< 0.03	0.03 to 0.06	0.03 to 0.06	0.3 to 0.6	C=CC(=O)N1CCC(Nc2cc3c(Nc4ccc(Oc5ccnc(N6CC[C@@H](CO)C6)c5)cc4F)ncnc3cc2OC)CC1 [Example 251, (R)-1-(4-((4-((2-fluoro-4-((2-(3-(hydroxymethyl)pyrrolidin-1-yl)pyridin-4-yl)oxy)phenyl)amino)-7-methoxyquinazolin-6-yl)amino)piperidin-1-yl)prop-2-en-1-one]
0.1 to 0.3	0.03 to 0.06	0.03 to 0.06	0.03 to 0.06	0.6 to 1	C=CC(=O)N1CCC(Nc2cc3c(Nc4ccc(Oc5ccnc(N6CCC[C@@H]6C)c5)cc4F)ncnc3cc2OC)CC1 [Example 252, (S)-1-(4-((4-((2-fluoro-4-((2-(2-methylpyrrolidin-1-yl)pyridin-4-yl)oxy)phenyl)amino)-7-methoxyquinazolin-6-yl)amino)piperidin-1-yl)prop-2-en-1-one]
0.1 to 0.3	0.03 to 0.06	0.03 to 0.06	0.03 to 0.06	0.3 to 0.6	C=CC(=O)N1CCC(Nc2cc3c(Nc4ccc(Oc5ccnc(N6C[C@@H](F)[C@@H](F)C6)c5)cc4F)ncnc3cc2OC)CC1 [Example 253, 1-(4-((4-((4-((2-((3S,4R)-3,4-difluoropyrrolidin-1-yl)pyridin-4-yl)oxy)-2-fluorophenyl)amino)-7-methoxyquinazolin-6-yl)amino)piperidin-1-yl)prop-2-en-1-one]
0.06 to 0.1	< 0.03	< 0.03	< 0.03	≥ 1	C=CC(=O)N1CCC(Nc2cc3c(Nc4ccc(Oc5ccnc(N6C[C@@H]7OCCO[C@@H]7C6)c5)cc4F)ncnc3cc2OC)CC1 [Example 254, 1-(4-((4-((2-fluoro-4-((2-((4aR,7aS)-hexahydro-6H-[1,4]dioxino[2,3-c]pyrrol-6-yl)pyridin-4-yl)oxy)phenyl)amino)-7-methoxyquinazolin-6-yl)amino)piperidin-1-yl)prop-2-en-1-one]
0.3 to 0.6	< 0.03	< 0.03	< 0.03	≥ 1	C=CC(=O)N1CCC(Nc2cc3c(Nc4ccc(Oc5ccnc(N6C[C@@H](OC)[C@H](OC)C6)c5)cc4F)ncnc3cc2OC)CC1 [Example 255, 1-(4-((4-((4-((2-((3R,4R)-3,4-dimethoxypyrrolidin-1-yl)pyridin-4-yl)oxy)-2-fluorophenyl)amino)-7-methoxyquinazolin-6-yl)amino)piperidin-1-yl)prop-2-en-1-one]
